According to the supplement of paper PMC10627819:

Assays:
[1] = tested on: B. subtilis 168; experiment: Bliss interaction score (quartile over a dose matrix) (fitness difference); higher = more antagonism (negative = synergy)
How it was run: (§1)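 Each OD595 reading at entry into stationary phase was scaled to the robust mean of the untreated wells on its plate, with a ceiling of 1. These ratios define fitness, and single-drug fitness was inferred from combinations. The Bliss score compares observed fitness with the product-based expectation and is reported as quartiles across all replicate types, technical, biological and donor/recipient.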

[2] = tested on: S. aureus DSM 20231; experiment: as above
How it was run: as §1

[3] = tested on: S. aureus Newman; experiment: as above
How it was run: as §1

[4] = tested on: S. pneumoniae D39V; experiment: as above
How it was run: as §1

[5] = tested on: B. subtilis 168; experiment: fitness (endpoint OD595 vs no drug) (fraction); higher = more growth
How it was run: (§2)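 Plates with 384 wells were inoculated at OD595 0.01 using 30 µl of TSB, LB Lennox or CY, or 55 µl for S. pneumoniae. Incubation was at 37 °C, with OD595 measured every 30 min for 14 h. Fitness is the stationary-phase transition optical density over the robust mean of no-drug control wells, after first-reading background subtraction; it is capped at 1.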

[6] = tested on: S. aureus Newman; experiment: as above
How it was run: as §2

[7] = tested on: S. pneumoniae D39V; experiment: as above
How it was run: as §2
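Throughout, for Bliss interaction score (quartile over a dose matrix): first quartile when negative (synergy) and third quartile when positive (antagonism).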

CN(C)c1cc(NC(=O)CNC(C)(C)C)c(O)c2c1C[C@H]1C[C@H]3[C@H](N(C)C)C(O)=C(C(N)=O)C(=O)[C@@]3(O)C(O)=C1C2=O [Tigecycline] + CC1=C\[C@@H](O)CC(=O)Cc2nc(co2)C(=O)N2CCC=C2C(=O)O[C@H](C(C)C)[C@H](C)/C=C/C(=O)NC\C=C\1 [Virginiamycin M1]
Details	Bliss interaction score
[1]	-0.0387
[2]	0.109
[3]	-0.0271
[4]	-0.0538

fitness
Details	first compound 0.039 µg/mL	first compound 0.078 µg/mL	first compound 0.156 µg/mL	first compound 0.65 µg/mL	first compound 1.3 µg/mL	first compound 2.6 µg/mL
[5], partner 0.0625 µg/mL	0.977	0.987	0.96	–	–	–
[5], partner 0.125 µg/mL	0.95	0.938	0.954	–	–	–
[5], partner 0.25 µg/mL	0.997	0.989	0.953	–	–	–
[6], partner 0.0625 µg/mL	0.982	≥ 1	≥ 1	–	–	–
[6], partner 0.125 µg/mL	0.998	0.999	≥ 1	–	–	–
[6], partner 0.25 µg/mL	0.993	0.996	≥ 1	–	–	–
[7], partner 0.5 µg/mL	–	–	–	0.99	0.961	0.976
[7], partner 1 µg/mL	–	–	–	0.946	0.951	0.956
[7], partner 2 µg/mL	–	–	–	0.919	0.904	0.931

one replicate
Details	fitness
[5], first compound 0.125 µg/mL, partner 0.0625 µg/mL	≥ 1
[5], first compound 0.125 µg/mL, partner 0.125 µg/mL	≥ 1
[5], first compound 0.125 µg/mL, partner 0.25 µg/mL	≥ 1
[5], first compound 0.25 µg/mL, partner 0.0625 µg/mL	0.908
[5], first compound 0.25 µg/mL, partner 0.125 µg/mL	0.908
[5], first compound 0.25 µg/mL, partner 0.25 µg/mL	0.98
[5], first compound 0.5 µg/mL, partner 0.0625 µg/mL	0.959
[5], first compound 0.5 µg/mL, partner 0.125 µg/mL	0.903
[5], first compound 0.5 µg/mL, partner 0.25 µg/mL	0.925
[6], first compound 0.039 µg/mL, partner 0.5 µg/mL	0.817
[6], first compound 0.039 µg/mL, partner 1 µg/mL	0.983
[6], first compound 0.039 µg/mL, partner 2 µg/mL	0.768
[6], first compound 0.078 µg/mL, partner 0.5 µg/mL	0.817
[6], first compound 0.078 µg/mL, partner 1 µg/mL	0.877
[6], first compound 0.078 µg/mL, partner 2 µg/mL	0.742
[6], first compound 0.156 µg/mL, partner 0.5 µg/mL	0.86
[6], first compound 0.156 µg/mL, partner 1 µg/mL	0.872
[6], first compound 0.156 µg/mL, partner 2 µg/mL	0.745
[7], first compound 0.65 µg/mL, partner 0.15 µg/mL	0.982
[7], first compound 0.65 µg/mL, partner 0.3 µg/mL	0.92
[7], first compound 1.3 µg/mL, partner 0.15 µg/mL	0.963
[7], first compound 1.3 µg/mL, partner 0.3 µg/mL	0.914
[7], first compound 2.6 µg/mL, partner 0.15 µg/mL	0.928
[7], first compound 2.6 µg/mL, partner 0.3 µg/mL	0.86

C[C@@H]1O[C@@H]1P(=O)(O)O [Fosfomycin] + CN[C@@H]1[C@H](O[C@H]2[C@H](O[C@H]3[C@H](O)[C@@H](O)[C@H](N=C(N)N)[C@@H](O)[C@@H]3N=C(N)N)O[C@@H](C)[C@]2(O)C=O)O[C@@H](CO)[C@H](O)[C@H]1O [Streptomycin]
Details	Bliss interaction score
[1]	-0.187
[2]	-0.14
[3]	-0.106
[4]	-0.0437

fitness
Details	partner 1 µg/mL	partner 2 µg/mL	partner 4 µg/mL	partner 8 µg/mL
[5], first compound 1.562 µg/mL	–	0.664	–	–
[5], first compound 3.124 µg/mL	–	0.399	–	–
[6], first compound 0.781 µg/mL	0.599	0.565	–	–
[6], first compound 1.562 µg/mL	0.517	0.467	–	–
[6], first compound 3.124 µg/mL	0.156	0.131	0.0427	–
[7], first compound 1.25 µg/mL	–	0.919	0.921	0.902
[7], first compound 2.5 µg/mL	–	0.903	0.9	0.918
[7], first compound 5 µg/mL	–	0.715	0.747	0.722

[7], partner 16 µg/mL, one replicate
Details	fitness
first compound 1.25 µg/mL	0.765
first compound 2.5 µg/mL	0.714
first compound 5 µg/mL	0.436
